Several values for one entry are separate records, joined by “and”; a condition that tells them apart may be missing. Equal entries are not always repeated.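 Following 48 hours of exposure in 96-well plates, responses at five concentrations were used to interpolate endpoints linearly. At the GI50, growth is halved. TGI marks complete inhibition of growth.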
What was measured:
Test in all cases: NCI tumour cell line growth inhibition, 48 h
[1] = test system: OVCAR-8 ovarian
[2] = test system: SN12C renal
[3] = test system: A549 NSCLC
[4] = test system: LOX IMVI melanoma
[5] = test system: HT29 colon
[6] = test system: EKVX NSCLC
[7] = test system: HOP-62 NSCLC
[8] = test system: CCRF-CEM leukemia
[9] = test system: SK-MEL-2 melanoma
[10] = test system: HCT-15 colon

SMILES | TGI [1] | TGI [2] [µM] | TGI [3] | TGI [4] [µM] | TGI [5] [µM] | TGI [6] | TGI [7] | TGI [8] | TGI [9] [µM] | TGI [10] | GI50 [1] [µM] | GI50 [3] [µM] | GI50 [5] [µM] | GI50 [6] [µM] | GI50 [7] [µM] | GI50 [8] [µM] | GI50 [9] | GI50 [10] [µM]
CN1CCC23c4ccccc4NC1C21CCN(C)C3Nc2ccccc21 | > 37.5 µM | > 375 | > 375 µM | > 375 | > 375 | > 375 µM | > 375 µM | > 188 µM | > 375 | > 375 µM |  |  |  |  |  |  |  | 
Cc1nc(Cl)c(C)c(Cl)n1 | > 100 µM | > 100 | > 100 µM | > 100 | > 100 | > 50.9 µM | > 100 µM | > 100 µM | > 100 | > 100 µM |  |  |  |  |  |  |  | 
COC1(OC)C[C@H](C)[C@@]23O[C@]24c2cc(O)c5c(c2N[C@H]3C#C/C=C\C#C[C@]14O)C(=O)c1ccccc1C5=O | 0.048 µM and 0.0756 µM | 0.00979 | 0.0489 µM and 0.0352 µM | 0.049 |  | 0.213 µM and 0.202 µM | 0.00216 µM and 0.0173 µM | 0.00572 µM and 0.0539 µM | 0.355 | 0.24 µM and 0.543 µM | 0.0043 | < 0.001 | 0.0226 | 0.0527 | < 0.001 | 0.005 | 0.359 µM and 0.0593 µM | 0.0118
COc1ccc(OC)c2sc(N3C(=O)/C(=C/c4ccccc4S)N=C3c3ccccc3)nc12 | > 100 µM | 81.9 | > 100 µM | 60.4 | > 100 | > 100 µM | > 100 µM | 42.5 µM | 78.8 | > 100 µM |  |  |  |  |  |  |  | 
O=C1CC(n2cccc2)c2cc(Br)sc21 (stereo unspecified) | > 100 µM | > 100 | > 100 µM | > 100 | > 100 | > 100 µM | > 100 µM | 60 µM | > 100 | > 100 µM |  |  |  |  |  |  |  | 
N#CCc1[nH]nc2nc(SCc3ccccc3)nc(N3CCCCC3)c12 | > 100 µM | 28.7 | 34.5 µM | 43 | 41.4 | 39.5 µM | 35.5 µM | 33.8 µM | 39.3 | > 100 µM |  |  |  |  |  |  |  | 
O=C1CS(=O)(=O)C(c2cccc(Oc3ccccc3)c2)N1c1cccc(Cl)c1Cl (stereo unspecified) | 60.1 µM | 44.6 | > 100 µM | 47.7 | 71.2 | 83.7 µM | > 100 µM | > 100 µM | 40.1 |  |  |  |  |  |  |  |  | 
OC1C=C2C3CN(Cc4cc5c(cc43)OCO5)[C@H]2C[C@@H]1O (stereo partly specified) | 91.2 µM | > 100 | > 100 µM | > 100 | 46.3 | 28.6 µM | > 100 µM | 7.04 µM | 11.9 | 34.1 µM |  |  |  |  |  |  |  | 
Cc1c2c(cc3c1[nH]c1ccccc13)C(c1ccc(F)cc1)=NCC2 | 6.68 µM | 6.4 | 6.47 µM | 3.02 | 4.2 | 9.02 µM | 6.54 µM | 7.2 µM | 3.28 | 12.4 µM |  |  |  |  |  |  |  | 
OC(c1ccc(-c2ccccc2)cc1)(c1ccc(-c2ccccc2)cc1)c1ccc(-c2ccccc2)cc1 | > 100 µM | > 100 | > 100 µM | > 100 | > 100 | > 100 µM | > 100 µM |  |  | > 100 µM |  |  |  |  |  |  |  | 
CO[C@@]12C[C@@H](CNC(=O)c3cc(Br)c[nH]3)O[C@@H]1NC(=O)N2 | > 100 µM | > 100 | > 100 µM | > 100 | > 100 | > 100 µM | > 100 µM | > 100 µM | > 100 | > 100 µM |  |  |  |  |  |  |  | 
CCC(C)C(NC(=O)C(CCCCN)NC(=O)C(NC(=O)C(CCC(N)=O)NC(=O)C(CCCNC(=N)N)NC(C)=O)C(C)CC)C(=O)NC(Cc1c[nH]c2ccccc12)C(=O)NC(Cc1ccccc1)C(=O)NC(CCC(N)=O)C(=O)NC(CC(N)=O)C(=O)NC(CCCNC(=N)N)C(=O)NC(CCCNC(=N)N)C(=O)NC(CCSC)C(=O)NC(CCCCN)C(=O)NC(Cc1c[nH]c2ccccc12)C(=O)NC(CCCCN)C(=O)NC(CCCCN)C(N)=O (stereo unspecified) | > 50 µM | > 50 | > 50 µM | > 50 | > 50 | > 50 µM | > 50 µM | > 50 µM | > 50 | > 50 µM |  |  |  |  |  |  |  | 
O=C(O)C(Cc1ccccc1)N1C(=O)c2ccccc2C1=O (stereo unspecified) | > 100 µM | > 100 | > 100 µM | > 100 | > 100 | > 100 µM | > 100 µM | 65.1 µM | > 100 | > 100 µM |  |  |  |  |  |  |  | 
CC(=O)C1(c2ccccc2)CCCN(C)CC1 (stereo unspecified) | > 100 µM |  |  | > 100 | > 100 |  | > 100 µM | > 100 µM | > 100 | > 100 µM |  |  |  |  |  |  |  | 
